From patent US4298739A, “Novel carbostyril derivatives” (priority 1977, dated 1981)
Several values for one entry are separate records, joined by “and”; a condition that tells them apart may be missing. Identical values can stand only once.

Assays:
[1] = system: rabbit platelet; experiment: ADP-induced aggregation in rabbit platelets (AG-II Aggregometer); assay type: cell-based; parameters: inhibition: dose or concentration left out as unconfirmed; conditions: Oryctolagus cuniculus, Platelet, read-out: Inhibition effect on ADP-induced aggregation in rabbit platelet
How it was run: (§1)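 Rabbit citrated PRP, diluted with PPP to 300,000/mm^3 platelets for ADP or 450,000/mm^3 for collagen, was preincubated with compound 1 min at 37° C. before inducer was added. ADP at 7.5×10^-5 M or collagen supernatant in Auren Beronal buffer pH 7.35; transmittance change recorded, percent inhibition derived.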

[2] = system: rabbit platelet; experiment: Collagen-induced aggregation in rabbit platelets (AG-II Aggregometer); assay type: cell-based; parameters: inhibition: dose or concentration left out as unconfirmed; conditions: Oryctolagus cuniculus, Platelet, read-out: Inhibition effect on collagen induced aggregation in rabbit platelet
How it was run: as §1

[3] = Concentration in blood of male beagle dogs; assay type: in vivo; conditions: 30 mg/kg water suspension, 30 mg/kg; for Concentration in blood: Beagle dog
Description: (§2) A water suspension of test compound was administered at the dose of 30 mg/kg to the overnight fasted male Wister rats and male beagle dogs, and after a predetermined period of time, blood was collected from said animals to obtain plasma. 2 to 3 Milliliters of 0.1 N-NaOH and 2 ml of CHCl3 were added to 1 ml of the obtained plasma, and the mixture was shaken and extracted in a shaker for 2 hours, and after centrifugal separation, the organic layer was washed with 2 ml of 0.1 N-HCl. This organic layer was then subjected to a freezing and thawing treatment, and after evaporating chloroform under nitrogen stream, the residue was redissolved in 100 μl of chloroform and spotted on a thin layer plate of "Silica Gel 60 F254 " manufactured by Merck & Co., Inc. This was developed in a chloroform: butanol mixed solvent (5:1) and determined by measuring the spots with same Rf value as the test compound according to the absorbance method by using Shimazu CS-910 Thin Layer Chromato-scanner,and therefrom the concentration (μg/ml) of test compound A in blood was determined.

[4] = Concentration in blood of male Wister rats; assay type: in vivo; conditions: 30 mg/kg water suspension, 30 mg/kg; for Concentration in blood: Rat
Description: as §2

## CC(=O)OC1CCC(N(C)C(=O)CCCOc2ccc3[nH]c(=O)ccc3c2)CC1 (stereo not shown) [compound 3, 6-{3-[N-Methyl-N-(4-acetyloxycyclohexyl)aminocarbonyl]propoxy}carbostyril]
[1]; 10^-4 mole
  inhibition at 100 µM (stock): 91.5%
[1]; 10^-5 mole
  inhibition at 10 µM (stock): 75%
[1]; 10^-6 mole
  inhibition at 1 µM (stock): 20.8%
[2]; 10^-4 mole
  inhibition at 100 µM (stock): 90.8%
[2]; 10^-5 mole
  inhibition at 10 µM (stock): 84.8%
[2]; 10^-6 mole
  inhibition at 1 µM (stock): 61.9%

## CN(C(=O)CCCOc1ccc2[nH]c(=O)ccc2c1)C1CCCCC1 [compound 16, 6-[3-(N-Methyl-N-cyclohexylaminocarbonyl)propoxy]carbostyril]
[3]; 1 hr., 60 min
  Concentration in blood: 0.13 µg/mL
[3]; 2 hr., 120 min
  Concentration in blood: 0.31 µg/mL
[3]; 6 hr., 360 min
  Concentration in blood: 0.21 µg/mL
[3]; 12 hr., 720 min
  Concentration in blood: 0.07 µg/mL
[3]; dog, plasma, 1 hr.
  concentration at 1 h: 230 ng/mL
[3]; dog, plasma, 2 hr.
  concentration at 2 h: 280 ng/mL
[3]; dog, plasma, 6 hr.
  concentration at 6 h: 110 ng/mL
[3]; dog, plasma, 12 hr.
  concentration at 12 h: 40 ng/mL
[4]; 1 hr., 60 min
  Concentration in blood: 1.06 µg/mL and 0.88 µg/mL
[4]; 4 hr., 240 min
  Concentration in blood: 0.71 µg/mL and 0.83 µg/mL
[4]; 12 hr., 720 min
  Concentration in blood: 0.73 µg/mL and 0.78 µg/mL
[4]; rat, plasma, 1 hr.
  concentration at 1 h: 900 ng/mL
[4]; rat, plasma, 4 hr.
  concentration at 4 h: 1100 ng/mL
[4]; rat, plasma, 12 hr.
  concentration at 12 h: 640 ng/mL
[1]
  inhibition: 91.7%
[2]
  inhibition: 90.5%
